Measurements as given in patent US5695970A, “Glucan lyase producing 1,5-anhydrofructose” (priority 1992, dated 1997).
“Also recorded” adds a separate entry of the source.

Experiments:
Assay type in all cases: biochemical, Gracilariopsis lemaneiformis
α-1,4-glucan lyase [1] = assay: Inhibition studies of α-1,4-glucan lyase activity; conditions: for inhibition of enzymic activity: 0.1M; for inhibitory effect on the enzyme activity: 4 mM; for inhibition of the algal enzyme (in words): summary statement; for inhibition of the enzyme: 50mM
Description: (§1) The reaction mixture for the assay of α-1,4-glucan lyase was composed of 240 μl 62.5 mM Mops-NaOH containing 6 mg soluble starch (pH 6.2), the enzyme preparation and distilled water to a final volume of 300 μl. The reaction was carried out at 30° C. for 10-30 min. Liberated 1,5-anhydrofructose was determined by monitoring the absorbance at 546 nm after the addition of 3,5-dinitrosalicylic acid reagent. Soluble starch in the reaction mixture may be replaced by other substrates and the final substrate concentration may be varied as indicated in the text. The reaction time and enzyme concentration used in enzyme activity assay have been chosen to ensure the linearity of the reaction rate. One unit of α-1,4-glucan lyase activity is defined as the amount of enzyme which liberates 1μmol of 1,5-anhydrofructose min^-1 under the conditions described above.

α-1,4-glucan lyase [2] = assay: Substrate specificity of α-1,4-glucan lyase, long term incubation (24 h), continuation of Table IV; conditions: for release of 1,5-anhydrofructose and glucose checked by TLC on Silica gel 60: after 24 h of incubation; for Product released: 24 h
Description: The incubation time was 24 h.
as §1

α-1,4-glucan lyase [3] = assay: Substrate specificity of α-1,4-glucan lyase (release of 1,5-anhydrofructose, DNS method, 15 min); conditions: for Activity (% of Maltoheptaose): incubation 15 min
Description: When amylopectin was used as a substrate, the activity reached maximum 8 mg ml^-1 and then decreased slightly at 20 mg ml^-1. The same results were obtained with soluble starch and maltoheptaose. When maltotriose and maltose were used as substrates, the activity reached maximum at 2 mg ml^-1 and 6 mg ml^-1, respectively. Substrate inhibition became evident at higher concentrations, especially in the case of maltotriose. […] Generally, the inhibition degree decreased with the increase in DP number (Degree of Polymerization). When the activity measured at 10 mg ml^-1 was compared at 2 mg ml^-1 and 4 mg ml^-1, substrate inhibition could be clearly seen among the maltosaccharides of DP 3-5. In maltohexaose, the substrate inhibition was very low and was none in maltoheptaose. Among the maltosaccharides, maltotetraose and maltopentaose were the poorest substrates.
With PNPG1 (p-nitrophenyl-α-D-glucoside), the artificial substrate of α-glucosidase, reaction rate was the lowest.
Substrate Specificity of α-1,4-Glucan lyase.
The concentration of various substrates in the reaction mixture
was 10 mg ml^-1 except PNPG1, PNPG2, PNPG7, which was 2 mM.
The incubation time was 15 min. The degrading rate of maltoheptaose
was 84 μmol min^-1. mg^-1 protein.
as §1

[4] = substrate 10 mg ml^-1, 1.64 μg enzyme
[5] = substrate 4 mg ml^-1, 1.64 μg enzyme
[6] = inhibitor 2 mM, amylopectin as substrate
[7] = inhibitor 2 mM, maltose as substrate

In the case of `OC[C@H]1O[C@H](OC[C@H]2OC(O)[C@H](O)[C@@H](O)[C@@H]2O)[C@H](O)[C@@H](O)[C@H]1O` (some centres unmarked) [Melibiose, melibiose], the “inhibition of enzymic activity” value (α-1,4-glucan lyase [1]; amylopectin as substrate) is reported as “no inhibition”, the “inhibition of enzymic activity” value (α-1,4-glucan lyase [1]; maltose as substrate) is reported as “no inhibition” and the “release of 1,5-anhydrofructose and glucose checked by TLC on Silica gel 60” value (from here on “release … on Silica gel 60”) (α-1,4-glucan lyase [2]) is reported as “No 1,5-anhydrofructose and glucose were released”. For the same compound, the Product released (α-1,4-glucan lyase [2]; [4]) was 0 nmol.
In the case of `O=[N+]([O-])c1ccc(O[C@H]2O[C@H](CO)[C@@H](O[C@H]3O[C@H](CO)[C@@H](O)[C@H](O)[C@H]3O)[C@H](O)[C@H]2O)cc1` [PNPG2, p-nitrophenyl-α-D-maltoside], the “Activity (% of Maltoheptaose)” value (α-1,4-glucan lyase [3]; substrate 2 mM) is reported as 22.5%.
`OC[C@H]1O[C@@H]2O[C@H]3[C@H](O)[C@@H](O)[C@@H](O[C@H]4[C@H](O)[C@@H](O)[C@@H](O[C@H]5[C@H](O)[C@@H](O)[C@@H](O[C@H]6[C@H](O)[C@@H](O)[C@@H](O[C@H]7[C@H](O)[C@@H](O)[C@@H](O[C@H]1[C@H](O)[C@H]2O)O[C@@H]7CO)O[C@@H]6CO)O[C@@H]5CO)O[C@@H]4CO)O[C@@H]3CO` [Cyclohexaamylose, cyclohexaamylose] was tested, and the “inhibitory effect on the enzyme activity” value (α-1,4-glucan lyase [1]; maltose as substrate) was “no inhibitory effect”, the “inhibitory effect on the enzyme activity” value (α-1,4-glucan lyase [1]; soluble starch as substrate) was “no inhibitory effect” and the “release … on Silica gel 60” value (α-1,4-glucan lyase [2]) was “No 1,5-anhydrofructose and glucose were released”. The Product released (α-1,4-glucan lyase [2]; substrate 20 mM, 1.64 μg enzyme) was 0 nmol.
`OC[C@H]1O[C@H](O[C@H]2O[C@H](CO)[C@@H](O)[C@H](O)[C@H]2O)[C@H](O)[C@@H](O)[C@@H]1O` [Trehalose, trehalose] was tested, and the “inhibition of enzymic activity” value (α-1,4-glucan lyase [1]; amylopectin as substrate) was “no inhibition”, the “inhibition of enzymic activity” value (α-1,4-glucan lyase [1]; maltose as substrate) was “no inhibition” and the “release … on Silica gel 60” value (α-1,4-glucan lyase [2]) was “No 1,5-anhydrofructose and glucose were released”. It also gave a Product released (α-1,4-glucan lyase [2]; [4]) of 0 nmol.
For `OC[C@@H](O)[C@@H](O)[C@H](O)[C@@H](O)CO` [sorbitol], the “inhibition of enzymic activity” value (α-1,4-glucan lyase [1]; amylopectin as substrate) was “no inhibition” and the “inhibition of enzymic activity” value (α-1,4-glucan lyase [1]; maltose as substrate) was “no inhibition”.
For arabinose, the “inhibition of enzymic activity” value (α-1,4-glucan lyase [1]; amylopectin as substrate) was “no inhibition” and the “inhibition of enzymic activity” value (α-1,4-glucan lyase [1]; maltose as substrate) was “no inhibition”.
In the case of `OC[C@@H](O)[C@@H](O[C@H]1O[C@H](CO)[C@@H](O)[C@H](O)[C@H]1O)[C@H](O)[C@@H](O)CO` [Maltitol, maltitol], the “inhibition of enzymic activity” value (α-1,4-glucan lyase [1]; amylopectin as substrate) is reported as roughly 27%, the “inhibition of enzymic activity” value (α-1,4-glucan lyase [1]; maltose as substrate) is reported as “around 47%” and the type of inhibition (α-1,4-glucan lyase [1]; maltose as substrate) is reported as “competitive”. For the same compound, the “inhibition of the algal enzyme (in words)” value (from here on “inhibition … (in words)”) (α-1,4-glucan lyase [1]; maltose as substrate) was “inhibited” and the Product released (α-1,4-glucan lyase [2]; [5]) was 122.4 nmol.
With `Nc1ncnc2c1ncn2[C@@H]1O[C@H](COP(=O)(O)OP(=O)(O)O[C@H]2O[C@H](CO)[C@@H](O)[C@H](O)[C@H]2O)[C@@H](O)[C@H]1O` [ADP-Glucose] the Product released (α-1,4-glucan lyase [2]; substrate 5 mM, 1.64 μg enzyme) was 0 nmol.
With `[Cl][Mn][Cl]` [MnCl2] the “inhibition of the enzyme” value (α-1,4-glucan lyase [1]; amylopectin as substrate) was “no inhibition” and the “inhibition of the enzyme” value (α-1,4-glucan lyase [1]; maltose as substrate) was “no inhibition”.
For `O=C(O)c1cc[c]([Hg][Cl])cc1` [PCMB, p-chloromercuribenzoic acid], the “inhibition of enzyme activity” value (α-1,4-glucan lyase [1]; [6]) was “around 90%”, the “inhibition of enzyme activity” value (α-1,4-glucan lyase [1]; [7]) was “around 90%” and the “inhibition … (in words)” value (α-1,4-glucan lyase [1]; no concentration) was “strongly inhibited”.
For `OC[C@H]1NC[C@H](O)[C@@H](O)[C@@H]1O` [Deoxynojirimycin, deoxynojirimycin], the “inhibition of enzyme activity” value (α-1,4-glucan lyase [1]; inhibitor 0.165 mM, maltose as substrate) was “inhibit the activity completely”, the “inhibition of enzyme activity” value (α-1,4-glucan lyase [1]; [6]) was “completely inhibited” and the “inhibition of enzyme activity” value (α-1,4-glucan lyase [1]; [7]) was “completely inhibited”. For the same compound, the “inhibition … (in words)” value (α-1,4-glucan lyase [1]; no concentration) was “strongly inhibited”.
“blocked p-nitrophenyl-α-D-maltoheptaoside [BPNPG7]” was tested, and the “activity of the lyase with the substrate (in words)” value (α-1,4-glucan lyase [2]; long term incubation at 30° C.) was “very low degrading rate; also recorded: little or no activity” and the Product released (α-1,4-glucan lyase [2]; substrate 2 mM, 4.91 μg enzyme) was 6.16 nmol.
With `OC[C@H]1O[C@H](O[C@H]2[C@H](O)[C@@H](O)[C@@H](O[C@H]3[C@H](O)[C@@H](O)[C@@H](O[C@H]4[C@H](O)[C@@H](O)[C@@H](O[C@H]5[C@H](O)[C@@H](O)C(O)O[C@@H]5CO)O[C@@H]4CO)O[C@@H]3CO)O[C@@H]2CO)[C@H](O)[C@@H](O)[C@@H]1O` (some centres unmarked) [Maltopentaose, maltopentaose] the substrate inhibition (α-1,4-glucan lyase [3]; higher substrate concentrations, 10 mg ml^-1 compared with 2 and 4 mg ml^-1) was “showed substrate inhibition” and the “Activity (% of Maltoheptaose)” value (α-1,4-glucan lyase [3]; substrate 10 mg ml^-1) was 36.6%.
For `O=P(O)(O)O[C@H]1O[C@H](CO)[C@@H](O)[C@H](O)[C@H]1O` [Glucose 1-Phosphate], the Product released (α-1,4-glucan lyase [2]; substrate 10 mM, 1.64 μg enzyme) was 0 nmol.
`[Ca+2].[Cl-].[Cl-]` [CaCl2] was tested, and the “inhibition of the enzyme” value (α-1,4-glucan lyase [1]; amylopectin as substrate) was “no inhibition” and the “inhibition of the enzyme” value (α-1,4-glucan lyase [1]; maltose as substrate) was “no inhibition”.
With `OC[C@H]1O[C@H](OC[C@H]2OC(O)[C@H](O)[C@@H](O)[C@@H]2O)[C@H](O)[C@@H](O)[C@@H]1O` (some centres unmarked) [Isomaltose, isomaltose] the “release … on Silica gel 60” value (α-1,4-glucan lyase [2]) was “No 1,5-anhydrofructose and glucose were released” and the Product released (α-1,4-glucan lyase [2]; [5]) was 0 nmol.
